Data as given in patent US7439027B2, “Method for modulating process mediated by farnesoid activated receptors” (The Salk Institute for Biological Studies, priority 1995, dated 2008).

Assays:
[1] = biological target: T1, FAR-RXRα complex (rat FAR and human RXRα) (Rattus norvegicus, UniProt Q62735, D356M/DEL339-355/E357R/INS337LPDTQTCWKKEFERAAS); test: hsp27-EcRE×5 MTV-luciferase reporter cotransfection in CV-1 cells expressing FAR and RXRα; assay type: cell-based; conditions: for activation of FAR-RXRα complex, hsp27 EcRE reporter: FIG. 5C
T1 construct: expressed in transfected cells; host or cells: CV-1 cells, CMV-driven expression vectors
T1 sequence (Q62735 1-469): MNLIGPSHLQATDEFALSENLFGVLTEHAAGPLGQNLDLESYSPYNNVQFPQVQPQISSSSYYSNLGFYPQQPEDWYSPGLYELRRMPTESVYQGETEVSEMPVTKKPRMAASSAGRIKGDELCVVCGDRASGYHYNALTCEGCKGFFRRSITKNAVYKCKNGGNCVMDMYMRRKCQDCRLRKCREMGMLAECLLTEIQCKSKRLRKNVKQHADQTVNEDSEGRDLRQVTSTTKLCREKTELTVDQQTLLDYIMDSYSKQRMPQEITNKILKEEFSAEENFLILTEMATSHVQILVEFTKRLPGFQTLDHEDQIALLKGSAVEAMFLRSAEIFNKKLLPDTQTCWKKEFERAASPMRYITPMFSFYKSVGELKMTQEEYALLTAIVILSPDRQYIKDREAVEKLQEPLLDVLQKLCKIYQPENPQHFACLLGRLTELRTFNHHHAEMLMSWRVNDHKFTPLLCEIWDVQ
T1 sequence (P19793 1-462 partner): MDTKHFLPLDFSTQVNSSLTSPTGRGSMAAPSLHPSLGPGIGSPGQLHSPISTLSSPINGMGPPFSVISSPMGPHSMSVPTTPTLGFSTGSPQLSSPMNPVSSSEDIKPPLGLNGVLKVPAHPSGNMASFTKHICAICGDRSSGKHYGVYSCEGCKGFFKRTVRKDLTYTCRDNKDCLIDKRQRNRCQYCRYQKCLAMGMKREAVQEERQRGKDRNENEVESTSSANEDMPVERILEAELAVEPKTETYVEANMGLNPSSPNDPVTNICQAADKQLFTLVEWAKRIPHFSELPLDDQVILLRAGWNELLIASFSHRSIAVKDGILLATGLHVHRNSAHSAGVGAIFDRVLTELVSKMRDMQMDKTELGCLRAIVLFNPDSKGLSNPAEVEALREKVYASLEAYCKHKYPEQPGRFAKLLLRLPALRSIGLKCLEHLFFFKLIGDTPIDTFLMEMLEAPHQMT
Description: Thus, CV-1 cells were grown in DMEM supplemented with 10% AG1-X8 resin-charcoal stripped calf bovine serum, 50 U/ml penicillin G and 50 μg/ml streptomycin sulfate (DMEM-CBS) at 37° C. in 5% CO2. One day prior to transfection, cells were plated to 50-80% confluence using phenol-red free DMEM with 10% resin charcoal stripped fetal bovine serum (DMEM-FBS). Cells were transfected (with reporter construct (300 ng/10^5 cells), cytomegalovirus driven receptor (100 ng/10^5 cells) and β-galactosidase expression vectors (500 ng/10^5 cells) as indicated in FIG. 4) by lipofection using N-{2-(2,3)-dioleoyloxy)propyl-N,N,N-trimethyl ammonium methyl sulfate} according to the manufacturer's instructions (DOTAP, Boehringer Mannheim). […] Cells were harvested and assayed for luciferase and β-galactosidase activity. […] Data points were normalized for differences in transfection efficiency using β-galactosidase, and plotted as relative activity where the untreated reporter is defined to have an activity of 1 unit.
(§1) Based on the identification of an EcRE as a DNA target, a reporter plasmid was constructed containing 5 copies of the hsp27 response element linked to a truncated mouse mammary tumor virus promoter (Yao et al., Nature 366:476-479 (1993)). This reporter was cotransfected into CV-1 cells alone, or with expression vectors for FAR and/or RXRα. Cotransfected cells were treated with a variety of potential ligands and monitored for changes in luciferase activity.
Thus, with reference to FIG. 5A, CV-1 cells were transiently transfected with hsp27-EcRE×5 MTV-luciferase alone (−) or with expression vectors for rat FAR and/or human RXRα. Reporter activity was assayed after treating cells with or without 50 μM JH III.
CV-1 cells were transiently transfected as described above with reference to FIG. 5A, but treated with or without 50 μM JH III, 100 nM LG69 and JH III+LG69.
Thus, CV-1 cells were transiently transfected with expression vectors for rat FR and human RXRα, as described above in Example 3. […] Data is plotted in FIG. 6A as fold activation relative to untreated cells.

[2] = biological target: T2, rat FAR (Rattus norvegicus, UniProt Q62735, D356M/DEL339-355/E357R/INS337LPDTQTCWKKEFERAAS); test: hsp27-EcRE×5 MTV-luciferase reporter in CV-1 cells expressing FAR alone; assay type: cell-based; conditions: 50 μM JH III; FIG. 5A
T2 construct: expressed in transfected cells; host or cells: CV-1 cells, CMV-driven expression vector
T2 sequence (Q62735 1-469 INS337LPDTQTCWKKEFERAAS/DEL339-355/D356M/E357R): T1 sequence (Q62735 1-469)
Description: Thus, CV-1 cells were grown in DMEM supplemented with 10% AG1-X8 resin-charcoal stripped calf bovine serum, 50 U/ml penicillin G and 50 μg/ml streptomycin sulfate (DMEM-CBS) at 37° C. in 5% CO2. One day prior to transfection, cells were plated to 50-80% confluence using phenol-red free DMEM with 10% resin charcoal stripped fetal bovine serum (DMEM-FBS). Cells were transfected (with reporter construct (300 ng/10^5 cells), cytomegalovirus driven receptor (100 ng/10^5 cells) and β-galactosidase expression vectors (500 ng/10^5 cells) as indicated in FIG. 4) by lipofection using N-{2-(2,3)-dioleoyloxy)propyl-N,N,N-trimethyl ammonium methyl sulfate} according to the manufacturer's instructions (DOTAP, Boehringer Mannheim). […] Cells were harvested and assayed for luciferase and β-galactosidase activity. All points were performed in triplicate and varied by less than 10%. Experiments were repeated three or more time with similar results. […]
as §1, with “This reporter was cotransfected into CV-1 cells alone, or with expression vectors for FAR and/or RXRα.” left out, “activity. […]” for “activity.”

[3] = tested on: ornithine decarboxylase; conditions: 100 μM; bovine lymphocytes; cited from earlier work
[4] = biological target: T3, human RXRα (Homo sapiens, UniProt P19793); test: luciferase reporter in CV-1 cells expressing RXRα alone (hsp27-EcRE×5 MTV; CRBPII-TK); assay type: cell-based; conditions: 50 μM JH III; FIGS. 5A and 5B
T3 construct: expressed in transfected cells; host or cells: CV-1 cells, CMV-driven expression vector
T3 sequence (P19793 1-462): T1 sequence (P19793 1-462 partner)
Description: (§2) Thus, CV-1 cells were grown in DMEM supplemented with 10% AG1-X8 resin-charcoal stripped calf bovine serum, 50 U/ml penicillin G and 50 μg/ml streptomycin sulfate (DMEM-CBS) at 37° C. in 5% CO2. One day prior to transfection, cells were plated to 50-80% confluence using phenol-red free DMEM with 10% resin charcoal stripped fetal bovine serum (DMEM-FBS). Cells were transfected (with reporter construct (300 ng/10^5 cells), cytomegalovirus driven receptor (100 ng/10^5 cells) and β-galactosidase expression vectors (500 ng/10^5 cells) as indicated in FIG. 4) by lipofection using N-{2-(2,3)-dioleoyloxy)propyl-N,N,N-trimethyl ammonium methyl sulfate} according to the manufacturer's instructions (DOTAP, Boehringer Mannheim). […] Cells were harvested and assayed for luciferase and β-galactosidase activity. All points were performed in triplicate and varied by less than 10%. Experiments were repeated three or more time with similar results. Data points were normalized for differences in transfection efficiency using β-galactosidase, and plotted as relative activity where the untreated reporter is defined to have an activity of 1 unit.
Thus, with reference to FIG. 5A, CV-1 cells were transiently transfected with hsp27-EcRE×5 MTV-luciferase alone (−) or with expression vectors for rat FAR and/or human RXRα. Reporter activity was assayed after treating cells with or without 50 μM JH III. […]

[5] = biological target: T4, human RARα (Homo sapiens, UniProt P10276); test: RARα / DR5×2-TK luciferase reporter; assay type: cell-based; conditions: 50 μM JH III; FIG. 5B
T4 construct: expressed in transfected cells
T4 sequence (P10276 1-462): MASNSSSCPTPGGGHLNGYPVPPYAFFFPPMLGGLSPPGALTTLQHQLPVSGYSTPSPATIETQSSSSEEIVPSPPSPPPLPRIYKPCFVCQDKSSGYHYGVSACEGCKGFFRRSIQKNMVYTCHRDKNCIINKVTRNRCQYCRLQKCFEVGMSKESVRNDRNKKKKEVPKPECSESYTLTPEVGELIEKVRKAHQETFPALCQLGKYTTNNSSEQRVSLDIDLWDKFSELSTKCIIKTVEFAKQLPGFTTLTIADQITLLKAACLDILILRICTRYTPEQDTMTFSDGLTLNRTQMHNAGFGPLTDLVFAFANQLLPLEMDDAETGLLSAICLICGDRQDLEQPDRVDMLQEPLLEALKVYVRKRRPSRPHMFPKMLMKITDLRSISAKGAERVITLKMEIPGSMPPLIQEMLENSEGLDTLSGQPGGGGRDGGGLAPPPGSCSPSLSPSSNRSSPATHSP
Description: as §2, with “unit. […]” for “unit.”

[6] = biological target: T1, FAR-RXRα complex (rat FAR and human RXRα); test: hsp27-EcRE×5 MTV-luciferase reporter cotransfection in CV-1 cells expressing FAR and RXRα; assay type: cell-based; conditions: JH III; parental MTV reporter without EcREs
[7] = tested on: Drosophila G-EcR+USP; test: G-EcR+USP / hsp27-EcRE×5 MTV luciferase reporter; assay type: cell-based; conditions: 50 μM JH III; FIG. 5B
Description: as §2, with “unit. […]” for “unit.”

[8] = biological target: T5, human T3Rβ (Homo sapiens, UniProt P10828); test: T3Rβ / TREp×2-TK luciferase reporter; assay type: cell-based; conditions: 50 μM JH III; FIG. 5B
T5 construct: expressed in transfected cells
T5 sequence (P10828 1-461): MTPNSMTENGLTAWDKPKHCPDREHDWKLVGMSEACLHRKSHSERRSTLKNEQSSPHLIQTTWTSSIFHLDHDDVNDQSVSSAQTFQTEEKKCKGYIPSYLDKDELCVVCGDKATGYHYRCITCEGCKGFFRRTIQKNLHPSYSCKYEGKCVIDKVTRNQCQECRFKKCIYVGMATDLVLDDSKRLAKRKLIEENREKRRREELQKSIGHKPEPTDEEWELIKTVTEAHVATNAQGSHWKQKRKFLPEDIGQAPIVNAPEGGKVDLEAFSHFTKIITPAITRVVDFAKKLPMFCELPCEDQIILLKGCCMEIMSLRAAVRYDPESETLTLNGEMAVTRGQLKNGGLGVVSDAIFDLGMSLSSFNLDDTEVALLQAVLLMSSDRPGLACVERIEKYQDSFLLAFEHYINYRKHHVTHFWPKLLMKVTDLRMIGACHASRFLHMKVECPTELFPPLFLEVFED
Description: as §2, with “unit. […]” for “unit.”

[9] = tested on: HMG-CoA reductase; conditions: by a mevalonate-derived non-sterol; cited from earlier work

C[C@H](CCC1OC1(C)C)[C@H]1CC[C@H]2[C@@H]3CC=C4C[C@@H](O)CC[C@]4(C)[C@H]3CC[C@]12C (some centres unmarked) [24,25-epoxycholesterol]
activation of FAR-RXRα (in words) ([1]; 50 μM, FIG. 6A): little or no activation

C[C@H](CCCC(C)(C)O)[C@H]1CC[C@H]2[C@@H]3CC=C4C[C@@H](O)CC[C@]4(C)[C@H]3CC[C@]12C [25-hydroxycholesterol]
activation of FAR-RXRα (in words) ([1]; 10 μM): little or no activation

COC(=O)/C=C(\C)CC/C=C(\C)CCC1OC1(C)C (stereo not drawn) [JH III, cis-10,11-epoxy-3,7,11-trimethyl-trans-trans-2,6-dodecadienoic acid methyl ester]
induction of luciferase activity ([1]; 50 μM JH III, CV-1 cells expressing both FAR and RXRα, FIG. 5A): 10 fold
activation of FAR-RXRα complex, hsp27 EcRE reporter ([1]; 50 μM JH III): 17 fold
activation of FAR alone [2]: fails to activate
antagonism of induction of ornithine decarboxylase by phorbol esters and phytohemagglutinin [3]: can be antagonized
activation of RXRα alone [4]: fails to activate
activation of all-trans retinoic acid receptor (RAR) [5]: failed to activate
activation of FAR-RXR complexes using parental MTV reporter construct lacking the EcREs [6]: failed to activate
activation of ecdysone receptor (EcR+USP) [7]: failed to activate
activation of thyroid hormone receptor (T3R) [8]: failed to activate

CC=C(c1ccc(C(=O)O)cc1)c1cc2c(cc1C)C(C)(C)CCC2(C)C [LG69, (4-{1-3,5,5,8,8-pentamethyl-5,6,7,8-tetrahydro-2-napthalenyl)-1-propenyl}benzoic acid]
activation of FAR-RXRα complex, hsp27 EcRE reporter ([1]; 100 nM LG69): 76 fold

CC(C)=CCCC(C)=CCCC(C)=CC=O [farnesal]
activation of FAR-RXRα (in words) ([1]; 50 μM, FIG. 6A): weaker activity

CC(C)=CCCC(C)=CCCC(C)=CC(=O)O [farnesoic acid]
activation of FAR-RXRα (in words) ([1]; 50 μM, FIG. 6A): little or no activation

CC(C)=CCC/C(C)=C/CO [geraniol]
activation of FAR-RXRα (in words) ([1]; 50 μM, FIG. 6A): little or no activation

CC(C)=CCC/C(C)=C/CC/C(C)=C/CC/C(C)=C/CO [geranylgeraniol]
activation of FAR-RXRα (in words) ([1]; 50 μM, FIG. 6A): weaker activity

CC(C)=CCC[C@@H](C)[C@H]1CC[C@@]2(C)C3=C(CC[C@]12C)[C@@]1(C)CC[C@H](O)C(C)(C)[C@@H]1CC3 [lanosterol]
activation of FAR-RXRα (in words) ([1]; 50 μM, FIG. 6A): little or no activation

CC(O)(CCO)CC(=O)O (centres unmarked) [mevalonate]
activation of FAR-RXRα (in words) ([1]; 50 μM, FIG. 6A): little or no activation
activation of FAR-RXRα (in words) ([1]; 200 μM, cells cotransfected with a mevalonate transporter protein): weak activity
concentration added to cells at which down-regulation of HMG-CoA reductase activity occurs [9]: > 100 µM

CC(=O)[C@H]1CC[C@H]2[C@@H]3CC=C4C[C@@H](O)CC[C@]4(C)[C@H]3CC[C@]12C [pregnenolone]
activation of FAR-RXRα (in words) ([1]; 50 μM, FIG. 6A): little or no activation

CC(C)=CCC/C(C)=C/CC/C(C)=C/CC/C=C(\C)CC/C=C(\C)CCC1OC1(C)C (centres unmarked) [squalene epoxide]
activation of FAR-RXRα (in words) ([1]; 50 μM, FIG. 6A): little or no activation

CC(C)=CCC/C(C)=C/CC/C(C)=C/CC/C=C(\C)CC/C=C(\C)CCC=C(C)C [squalene]
activation of FAR-RXRα (in words) ([1]; 50 μM, FIG. 6A): little or no activation
